Test results: ChEMBL document CHEMBL2390877, “Structural requirements for inhibitory effects of bisphenols on the activity of the sarco/endoplasmic reticulum calcium ATPase” (Bioorg Med Chem, 2013)
The source made the active and inactive calls. The rule behind the calls is not given here.

Experiments:
[1] = Inhibition of rabbit skeletal muscle sarco/endoplasmic reticulum calcium ATPase assessed as inhibition of ATP hydrolysis by spectrophotometric analysis; parameters: species or system Oryctolagus cuniculus
Homo sapiens = species on record: Homo sapiens; assay: Inhibition of sarco/endoplasmic reticulum calcium ATPase in human GM08333 cells assessed as inhibition of calcium ion uptake at 50 uM measured for 1 min by Fura-2AM staining assay; format: cell-based
Serum = assay: Drug uptake in human serum; format: ADME, cell-free

Row | SMILES | IC50 [1] | IC50 ([1]; read-out: IC50) [µM] | other results
1 | CC(C)(c1cc(Br)c(OCCO)c(Br)c1)c1cc(Br)c(OCCO)c(Br)c1 | Not Active | – | –
2 | Oc1ccc(C(c2ccc(O)cc2)(C(F)(F)F)C(F)(F)F)cc1 | Not Active | – | –
3 | Nc1cc(C(c2ccc(O)c(N)c2)(C(F)(F)F)C(F)(F)F)ccc1O | Not Active | – | –
4 | CC(CCC(=O)O)(c1cc(Cl)c(O)c(Cl)c1)c1cc(Cl)c(O)c(Cl)c1 | – | 25 | –
5 | Cc1ccc(O)c(Cc2cc(C)ccc2O)c1 | – | 300 | –
6 | CC(C)(c1ccc(O)c(-c2ccccc2)c1)c1ccc(O)c(-c2ccccc2)c1 | – | 91 | inhibition (Homo sapiens): Active
7 | Oc1c(Cl)cc(Cl)cc1Cc1cc(Cl)cc(Cl)c1O | – | 31 | inhibition (Homo sapiens): Active
8 | CC(C)(c1cc(N)c(O)c(N)c1)c1cc(N)c(O)c(N)c1 | Not Active | – | –
9 | CC(c1ccc(O)cc1)c1ccc(O)cc1 | – | 90 | –
10 | CC(C)(c1cc(Br)c(OCC2CO2)c(Br)c1)c1cc(Br)c(OCC2CO2)c(Br)c1 (stereo not drawn) | Not Active | – | –
11 | Oc1c(Cl)cc(Cl)c(Cl)c1Cc1c(O)c(Cl)cc(Cl)c1Cl [HEXACHLOROPHENE] | – | 4 | inhibition (Homo sapiens): Active
12 | O=C(c1ccc(O)cc1)c1ccc(O)cc1 | – | 200 | –
13 | C=CCc1cc(C(C)(C)c2ccc(O)c(CC=C)c2)ccc1O | – | 2.2 | –
14 | Cc1cc(C(C)(C)c2ccc(O)c(C)c2)ccc1O | – | 24 | –
15 | Oc1ccc(Cc2ccc(O)cc2)cc1 | Not Active | – | –
16 | Oc1c(F)cc(C(c2cc(F)c(O)c(F)c2)(C(F)(F)F)C(F)(F)F)cc1F | – | 2.8 | –
17 | CC(C)(c1ccc(O)cc1)c1ccc(O)cc1 [BISPHENOL A] | – | 140 | –
18 | CC(C)(c1cc(Cl)c(O)c(Cl)c1)c1cc(Cl)c(O)c(Cl)c1 | – | 5.5 | inhibition (Homo sapiens): Active
19 | Nc1ccc(C2(c3ccc(N)cc3)CCCCC2)cc1 | Not Active | – | –
20 | CC(C)(C)c1cc(Cc2cc(C(C)(C)C)c(O)c(C(C)(C)C)c2)cc(C(C)(C)C)c1O | – | 16 | –
21 | Nc1ccc(C(c2ccc(N)cc2)(C(F)(F)F)C(F)(F)F)cc1 | Not Active | – | –
22 | CC(C)(c1ccc(O)c(C2CCCCC2)c1)c1ccc(O)c(C2CCCCC2)c1 | – | 94 | inhibition (Homo sapiens): Active
23 | CC(C)c1cc(C(C)(C)c2ccc(O)c(C(C)C)c2)ccc1O | – | 3.4 | –
24 | CC(C)(c1cc(Br)c(O)c(Br)c1)c1cc(Br)c(O)c(Br)c1 | – | 4.7 | Drug uptake (Serum): 0.3 µM; inhibition (Homo sapiens): Active
25 | Cc1cc(C(C)(C)c2cc(C)c(O)c(C)c2)cc(C)c1O | – | 2.6 | –
26 | Oc1ccc(C2(c3ccc(O)cc3)CCCCC2)cc1 | – | 27 | –
